PubChem BioAssay AID256 (DTP/NCI, 2004)
Toxic doses and inconclusive results are not listed. How the source made its calls: active means survival T/C of 150% or more; inactive means T/C below 125% in these data.

Tested on: CD2F1 mice, L1210 leukemia ip, survival T/C
Assay: NCI In Vivo Anticancer Drug Screen. Data for tumor model L1210 Leukemia (intraperitoneal) in CD2F1 (CDF1) mice
Conditions: higher = longer survival
In short: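 Vehicle-treated tumor-bearing mice served as controls (C) for compound-treated mice (T). Reported figure is T divided by C.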

[1] = endpoint: mean survival time, dose: 12.5 mg/kg/injection, schedule: Q01DX009 (ip), vehicle: saline with Tween-80
[2] = endpoint: mean survival time, dose: 100.0 mg/kg/injection, schedule: Q04DX003 (ip), vehicle: saline with Tween-80
[3] = endpoint: mean survival time, dose: 200.0 mg/kg/injection, schedule: Q04DX003 (ip), vehicle: saline with Tween-80
[4] = endpoint: mean survival time, dose: 50.0 mg/kg/injection, schedule: Q04DX002 (ip), vehicle: saline with Tween-80
[5] = endpoint: mean survival time, dose: 100.0 mg/kg/injection, schedule: Q04DX002 (ip), vehicle: saline with Tween-80
[6] = endpoint: mean survival time, dose: 200.0 mg/kg/injection, schedule: Q04DX002 (ip), vehicle: saline with Tween-80
[7] = endpoint: mean survival time, dose: 50.0 mg/kg/injection, schedule: Q01DX009 (ip), vehicle: saline with Tween-80
[8] = endpoint: mean survival time, dose: 100.0 mg/kg/injection, schedule: Q01DX009 (ip), vehicle: saline with Tween-80
[9] = endpoint: mean survival time, dose: 200.0 mg/kg/injection, schedule: Q01DX009 (ip), vehicle: saline with Tween-80

Measured: T/C

CC(C[P+](c1ccccc1)(c1ccccc1)c1ccccc1)C(O)(C(=O)c1ccccc1)c1ccccc1 (configuration not stated)
inactive: endpoint: mean survival time, dose: 6.25 mg/kg/injection, schedule: Q01DX001 (ip), vehicle: saline with Tween-80 108 % of control | endpoint: mean survival time, dose: 6.25 mg/kg/injection, schedule: Q01DX009 (ip), vehicle: saline with Tween-80 95 % of control | endpoint: mean survival time, dose: 12.5 mg/kg/injection, schedule: Q01DX001 (ip), vehicle: saline with Tween-80 103 % of control | [1] 110 % of control | endpoint: mean survival time, dose: 25.0 mg/kg/injection, schedule: Q01DX001 (ip), vehicle: saline with Tween-80 108 % of control

O=C(Nc1cccc(O)c1)OCCCCl
inactive: [2] 98 % of control | [3] 98 % of control | endpoint: mean survival time, dose: 400.0 mg/kg/injection, schedule: Q04DX003 (ip), vehicle: saline with Tween-80 96 % of control

Cc1nn(-c2ccccc2)c2c1C(=O)NC2Cc1ccccc1 (configuration not stated)
inactive: [4] 103 % of control | [5] 100 % of control | [6] 100 % of control

CC(=O)Nc1ccccc1N
inactive: endpoint: mean survival time, dose: 50.0 mg/kg/injection, schedule: Q01DX009 (ip), vehicle: Klucel (hydroxypropylcellulose) (HPC) 100 % of control | endpoint: mean survival time, dose: 100.0 mg/kg/injection, schedule: Q01DX009 (ip), vehicle: Klucel (hydroxypropylcellulose) (HPC) 94 % of control | endpoint: mean survival time, dose: 200.0 mg/kg/injection, schedule: Q01DX009 (ip), vehicle: Klucel (hydroxypropylcellulose) (HPC) 103 % of control | endpoint: mean survival time, dose: 400.0 mg/kg/injection, schedule: Q01DX009 (ip), vehicle: Klucel (hydroxypropylcellulose) (HPC) 107 % of control

Nc1nc2ncc(CN(N=O)c3ccc(C(=O)NC(CCC(=O)O)C(=O)O)cc3)nc2c(=O)[nH]1 (configuration not stated)
inactive: endpoint: mean survival time, dose: 10.0 mg/kg/injection, schedule: Q01DX009 (ip), vehicle: water 102 % of control | endpoint: mean survival time, dose: 20.0 mg/kg/injection, schedule: Q01DX009 (ip), vehicle: water 101 % of control | endpoint: mean survival time, dose: 40.0 mg/kg/injection, schedule: Q01DX009 (ip), vehicle: water 98 % of control | endpoint: mean survival time, dose: 80.0 mg/kg/injection, schedule: Q01DX009 (ip), vehicle: distilled water + Tween-80 94 % of control | endpoint: mean survival time, dose: 160.0 mg/kg/injection, schedule: Q01DX009 (ip), vehicle: distilled water + Tween-80 90 % of control

NNc1nc(=O)[nH]nc1Sc1ccccc1
inactive: endpoint: mean survival time, dose: 75.0 mg/kg/injection, schedule: Q01DX001 (ip), vehicle: saline 96 % of control | endpoint: mean survival time, dose: 150.0 mg/kg/injection, schedule: Q01DX001 (ip), vehicle: saline 101 % of control | endpoint: mean survival time, dose: 300.0 mg/kg/injection, schedule: Q01DX001 (ip), vehicle: saline 97 % of control

O=c1oc(-c2cccc(Cl)c2)nc2cc(Cl)ccc12
inactive: endpoint: mean survival time, dose: 100.0 mg/kg/injection, schedule: Q01DX001 (ip), vehicle: Klucel (hydroxypropylcellulose) (HPC) 98 % of control | endpoint: mean survival time, dose: 200.0 mg/kg/injection, schedule: Q01DX001 (ip), vehicle: Klucel (hydroxypropylcellulose) (HPC) 95 % of control | endpoint: mean survival time, dose: 400.0 mg/kg/injection, schedule: Q01DX001 (ip), vehicle: Klucel (hydroxypropylcellulose) (HPC) 94 % of control

[Cl][Hg][c]1ccc2ccccc2c1
inactive: endpoint: mean survival time, dose: 12.5 mg/kg/injection, schedule: Q04DX002 (ip), vehicle: saline with Tween-80 90 % of control | endpoint: mean survival time, dose: 25.0 mg/kg/injection, schedule: Q04DX002 (ip), vehicle: saline with Tween-80 102 % of control | [4] 111 % of control

COP(=O)(OC)OCC1OC(c2n[nH]c(C(N)=O)c2O)C(O)C1O (configuration not stated)
inactive: endpoint: median survival time, dose: 8.13 mg/kg/injection, schedule: Q01DX005 (ip), vehicle: saline 100 % of control | endpoint: median survival time, dose: 16.25 mg/kg/injection, schedule: Q01DX005 (ip), vehicle: saline 102 % of control | endpoint: median survival time, dose: 32.5 mg/kg/injection, schedule: Q01DX005 (ip), vehicle: saline 101 % of control | endpoint: median survival time, dose: 65.0 mg/kg/injection, schedule: Q01DX005 (ip), vehicle: saline 111 % of control | endpoint: median survival time, dose: 130.0 mg/kg/injection, schedule: Q01DX005 (ip), vehicle: saline 111 % of control

Nc1ccc(N=Nc2ccc3nccc(N)c3c2)c(N)n1
inactive: [5] 119 % of control | [6] 119 % of control | endpoint: mean survival time, dose: 400.0 mg/kg/injection, schedule: Q04DX002 (ip), vehicle: saline with Tween-80 119 % of control

COc1ccc(C[C@H](N)C(=O)NC2C(CO)OC(n3cnc4c(N(C)C)ncnc43)C2O)cc1 (some centres not stated)
inactive: endpoint: median survival time, dose: 25.0 mg/kg/injection, schedule: Q01DX005 (ip), vehicle: water 104 % of control | endpoint: median survival time, dose: 50.0 mg/kg/injection, schedule: Q01DX005 (ip), vehicle: water 111 % of control | endpoint: median survival time, dose: 100.0 mg/kg/injection, schedule: Q01DX005 (ip), vehicle: water 100 % of control

CC(=O)c1cc(C)[nH]c1C
inactive: [7] 101 % of control | [8] 100 % of control | [2] 102 % of control | [9] 103 % of control | [3] 96 % of control | endpoint: median survival time, dose: 100.0 mg/kg/injection, schedule: Q01DX001 (ip), vehicle: saline with Tween-80 100 % of control | endpoint: median survival time, dose: 200.0 mg/kg/injection, schedule: Q01DX001 (ip), vehicle: saline with Tween-80 100 % of control

CCCCCCCCCCCC(CCCCCCC)c1ccc(C)cc1 (configuration not stated)
inactive: endpoint: mean survival time, dose: 100.0 mg/kg/injection, schedule: Q01DX001 (ip), vehicle: saline 91 % of control | endpoint: mean survival time, dose: 200.0 mg/kg/injection, schedule: Q01DX001 (ip), vehicle: saline 94 % of control | endpoint: mean survival time, dose: 400.0 mg/kg/injection, schedule: Q01DX001 (ip), vehicle: saline 97 % of control

COC(=O)C1(C)CCCC2(C)C3CC(O)C(C(C)C)=CC3(O)CCC12 (configuration not stated)
inactive: [8] 100 % of control | [9] 96 % of control | endpoint: mean survival time, dose: 400.0 mg/kg/injection, schedule: Q01DX009 (ip), vehicle: saline with Tween-80 86 % of control

CCCCCCCCCCCCCCCC(=O)N1CCCN(C(=O)CCCCCCCCCCCCCCC)C1
inactive: endpoint: mean survival time, dose: 75.0 mg/kg/injection, schedule: Q04DX003 (ip), vehicle: saline 89 % of control | endpoint: mean survival time, dose: 150.0 mg/kg/injection, schedule: Q04DX003 (ip), vehicle: saline 89 % of control | endpoint: mean survival time, dose: 300.0 mg/kg/injection, schedule: Q04DX003 (ip), vehicle: saline 103 % of control

OCC1OC(n2ncc3c(NO)ncnc32)C(O)C1O (configuration not stated)
inactive: endpoint: mean survival time, dose: 1.56 mg/kg/injection, schedule: Q01DX005 (ip), vehicle: water 103 % of control | endpoint: mean survival time, dose: 3.13 mg/kg/injection, schedule: Q01DX005 (ip), vehicle: water 107 % of control | endpoint: mean survival time, dose: 6.25 mg/kg/injection, schedule: Q01DX005 (ip), vehicle: water 103 % of control | endpoint: mean survival time, dose: 12.5 mg/kg/injection, schedule: Q01DX005 (ip), vehicle: water 114 % of control | endpoint: mean survival time, dose: 25.0 mg/kg/injection, schedule: Q01DX005 (ip), vehicle: water 88 % of control

Nc1cc(Cl)c2ncn(C3OC(CO)C(O)C3O)c2n1 (configuration not stated)
inactive: endpoint: mean survival time, dose: 50.0 mg/kg/injection, schedule: Q01DX009 (ip), vehicle: saline 107 % of control | endpoint: mean survival time, dose: 100.0 mg/kg/injection, schedule: Q01DX009 (ip), vehicle: saline 104 % of control | endpoint: mean survival time, dose: 200.0 mg/kg/injection, schedule: Q01DX009 (ip), vehicle: saline 104 % of control

Nc1cc(=O)[nH]c(=S)[nH]1
inactive: [5] 97 % of control | [6] 105 % of control

CCC(=O)NC1=C(Cl)C(=O)c2ccccc2C1=O
inactive: endpoint: mean survival time, dose: 5.0 mg/kg/injection, schedule: Q01DX001 (ip), vehicle: saline 91 % of control | endpoint: mean survival time, dose: 10.0 mg/kg/injection, schedule: Q01DX001 (ip), vehicle: saline 101 % of control | endpoint: mean survival time, dose: 20.0 mg/kg/injection, schedule: Q01DX001 (ip), vehicle: saline 97 % of control

O=[N+]([O-])c1c(Br)sc(Br)c1[N+](=O)[O-]
inactive: [1] 97 % of control | endpoint: mean survival time, dose: 12.5 mg/kg/injection, schedule: Q04DX003 (ip), vehicle: saline with Tween-80 101 % of control | endpoint: mean survival time, dose: 25.0 mg/kg/injection, schedule: Q01DX009 (ip), vehicle: saline with Tween-80 88 % of control | endpoint: mean survival time, dose: 25.0 mg/kg/injection, schedule: Q04DX003 (ip), vehicle: saline with Tween-80 103 % of control | [7] 95 % of control | endpoint: mean survival time, dose: 50.0 mg/kg/injection, schedule: Q04DX003 (ip), vehicle: saline with Tween-80 109 % of control

NC(=O)NC1CC1(c1ccccc1)c1ccccc1 (configuration not stated)
inactive: endpoint: mean survival time, dose: 177.0 mg/kg/injection, schedule: Q01DX001 (ip), vehicle: other 94 % of control | endpoint: mean survival time, dose: 267.0 mg/kg/injection, schedule: Q01DX001 (ip), vehicle: other 96 % of control | endpoint: mean survival time, dose: 400.0 mg/kg/injection, schedule: Q01DX001 (ip), vehicle: other 100 % of control

C=C1C(=O)OCC2CCCCC12C (configuration not stated)
inactive: endpoint: mean survival time, dose: 1.25 mg/kg/injection, schedule: Q01DX009 (ip), vehicle: saline with Tween-80 98 % of control | endpoint: mean survival time, dose: 2.5 mg/kg/injection, schedule: Q01DX009 (ip), vehicle: saline with Tween-80 101 % of control | endpoint: mean survival time, dose: 5.0 mg/kg/injection, schedule: Q01DX009 (ip), vehicle: saline with Tween-80 101 % of control | endpoint: mean survival time, dose: 10.0 mg/kg/injection, schedule: Q01DX009 (ip), vehicle: saline with Tween-80 98 % of control
